Data taken from ChEMBL document CHEMBL1201862, “PubChem BioAssay data set” (2004).
Values belong to the molecule of their own block, whether it stands above or below them. Active and inactive are the calls of the source.

What was measured:
[1] = molecular target: T1, Mitochondrial peptide methionine sulfoxide reductase (Bos taurus, UniProt P54149); assay type: functional;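 also: absorbance read-out, biochemical high-throughput dose-response screen for MsrA inhibitors, confirmatory; recombinant bovine MsrA coupled to E. coli TrxB with NADPH and selenocystamine; potency is for inhibitors of MsrA activity on DMSO substrate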
T1 sequence (P54149 whole entry): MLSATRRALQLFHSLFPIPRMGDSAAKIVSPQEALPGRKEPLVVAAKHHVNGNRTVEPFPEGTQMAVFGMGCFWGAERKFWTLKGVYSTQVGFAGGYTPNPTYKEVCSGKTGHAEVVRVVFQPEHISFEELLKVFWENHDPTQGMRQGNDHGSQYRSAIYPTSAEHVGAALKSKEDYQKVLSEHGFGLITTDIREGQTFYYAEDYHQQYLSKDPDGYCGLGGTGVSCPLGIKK

[2] = molecular target: 26S proteasome non-ATPase regulatory subunit 14 (Homo sapiens, UniProt O00487); assay: inhibition of proteasome subunit RPN11 – biochemical, fluorescence polarization, uHTS hits, confirmation (AID 602368); assay type: functional
Chain of 26S proteasome non-ATPase regulatory subunit 14 (O00487 whole entry): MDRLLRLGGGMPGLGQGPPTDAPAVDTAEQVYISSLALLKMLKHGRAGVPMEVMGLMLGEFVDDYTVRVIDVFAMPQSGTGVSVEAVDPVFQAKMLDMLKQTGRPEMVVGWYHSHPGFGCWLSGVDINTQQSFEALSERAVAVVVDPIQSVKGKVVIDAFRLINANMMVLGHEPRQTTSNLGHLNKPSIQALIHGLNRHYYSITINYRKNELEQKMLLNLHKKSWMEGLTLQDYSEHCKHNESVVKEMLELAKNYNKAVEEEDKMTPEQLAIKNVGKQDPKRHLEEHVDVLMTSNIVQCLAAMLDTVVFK

Prothrombin = Prothrombin (Bos taurus, UniProt P00735); assay: thrombin inhibition, dose response, biochemical, fluorescence polarization, uHTS hits (AID 602369); assay type: functional
[3] = molecular target: 72 kDa type IV collagenase (Homo sapiens, UniProt P08253); assay: Dose Response validation of uHTS RPN11 inhibitor hits using a MMP-2 Fluorescence assay.; assay type: functional
Chain of 72 kDa type IV collagenase (P08253 whole entry): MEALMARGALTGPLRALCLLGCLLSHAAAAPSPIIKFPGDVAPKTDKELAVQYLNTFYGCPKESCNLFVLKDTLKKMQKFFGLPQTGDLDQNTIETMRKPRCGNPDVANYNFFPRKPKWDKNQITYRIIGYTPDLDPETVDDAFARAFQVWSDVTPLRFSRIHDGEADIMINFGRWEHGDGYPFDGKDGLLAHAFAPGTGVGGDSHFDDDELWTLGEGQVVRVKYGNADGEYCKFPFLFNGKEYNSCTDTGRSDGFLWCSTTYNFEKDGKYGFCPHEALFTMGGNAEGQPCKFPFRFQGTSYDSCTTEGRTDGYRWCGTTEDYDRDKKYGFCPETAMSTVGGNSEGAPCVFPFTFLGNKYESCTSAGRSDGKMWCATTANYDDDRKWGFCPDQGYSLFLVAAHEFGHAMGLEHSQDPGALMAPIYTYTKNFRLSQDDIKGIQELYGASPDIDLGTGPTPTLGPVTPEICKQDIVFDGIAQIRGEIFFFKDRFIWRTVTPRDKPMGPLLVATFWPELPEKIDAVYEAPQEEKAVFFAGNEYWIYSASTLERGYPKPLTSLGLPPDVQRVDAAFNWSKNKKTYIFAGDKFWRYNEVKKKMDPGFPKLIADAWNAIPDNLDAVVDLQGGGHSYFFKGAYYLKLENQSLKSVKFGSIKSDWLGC

[4] = molecular target: Cyclin-dependent kinase 1 (Homo sapiens, UniProt P06493); assay type: functional;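 also: Kinome-wide panel profiling, with the target listed as panel member CDC2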
Chain of Cyclin-dependent kinase 1 (P06493 whole entry): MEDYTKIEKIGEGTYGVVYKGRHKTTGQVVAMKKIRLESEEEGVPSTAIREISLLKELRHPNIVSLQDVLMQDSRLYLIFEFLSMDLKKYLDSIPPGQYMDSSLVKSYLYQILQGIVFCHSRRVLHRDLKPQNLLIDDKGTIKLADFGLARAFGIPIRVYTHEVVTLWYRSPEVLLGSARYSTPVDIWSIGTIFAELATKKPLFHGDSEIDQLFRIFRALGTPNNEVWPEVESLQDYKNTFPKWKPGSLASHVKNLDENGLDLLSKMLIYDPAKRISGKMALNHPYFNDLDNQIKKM

[5] = molecular target: Vascular endothelial growth factor receptor 3 (Homo sapiens, UniProt P35916); assay type: functional;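 also: value from a kinome-wide profiling panel, with FLT4 as the panel member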
Chain of Vascular endothelial growth factor receptor 3 (P35916 whole entry): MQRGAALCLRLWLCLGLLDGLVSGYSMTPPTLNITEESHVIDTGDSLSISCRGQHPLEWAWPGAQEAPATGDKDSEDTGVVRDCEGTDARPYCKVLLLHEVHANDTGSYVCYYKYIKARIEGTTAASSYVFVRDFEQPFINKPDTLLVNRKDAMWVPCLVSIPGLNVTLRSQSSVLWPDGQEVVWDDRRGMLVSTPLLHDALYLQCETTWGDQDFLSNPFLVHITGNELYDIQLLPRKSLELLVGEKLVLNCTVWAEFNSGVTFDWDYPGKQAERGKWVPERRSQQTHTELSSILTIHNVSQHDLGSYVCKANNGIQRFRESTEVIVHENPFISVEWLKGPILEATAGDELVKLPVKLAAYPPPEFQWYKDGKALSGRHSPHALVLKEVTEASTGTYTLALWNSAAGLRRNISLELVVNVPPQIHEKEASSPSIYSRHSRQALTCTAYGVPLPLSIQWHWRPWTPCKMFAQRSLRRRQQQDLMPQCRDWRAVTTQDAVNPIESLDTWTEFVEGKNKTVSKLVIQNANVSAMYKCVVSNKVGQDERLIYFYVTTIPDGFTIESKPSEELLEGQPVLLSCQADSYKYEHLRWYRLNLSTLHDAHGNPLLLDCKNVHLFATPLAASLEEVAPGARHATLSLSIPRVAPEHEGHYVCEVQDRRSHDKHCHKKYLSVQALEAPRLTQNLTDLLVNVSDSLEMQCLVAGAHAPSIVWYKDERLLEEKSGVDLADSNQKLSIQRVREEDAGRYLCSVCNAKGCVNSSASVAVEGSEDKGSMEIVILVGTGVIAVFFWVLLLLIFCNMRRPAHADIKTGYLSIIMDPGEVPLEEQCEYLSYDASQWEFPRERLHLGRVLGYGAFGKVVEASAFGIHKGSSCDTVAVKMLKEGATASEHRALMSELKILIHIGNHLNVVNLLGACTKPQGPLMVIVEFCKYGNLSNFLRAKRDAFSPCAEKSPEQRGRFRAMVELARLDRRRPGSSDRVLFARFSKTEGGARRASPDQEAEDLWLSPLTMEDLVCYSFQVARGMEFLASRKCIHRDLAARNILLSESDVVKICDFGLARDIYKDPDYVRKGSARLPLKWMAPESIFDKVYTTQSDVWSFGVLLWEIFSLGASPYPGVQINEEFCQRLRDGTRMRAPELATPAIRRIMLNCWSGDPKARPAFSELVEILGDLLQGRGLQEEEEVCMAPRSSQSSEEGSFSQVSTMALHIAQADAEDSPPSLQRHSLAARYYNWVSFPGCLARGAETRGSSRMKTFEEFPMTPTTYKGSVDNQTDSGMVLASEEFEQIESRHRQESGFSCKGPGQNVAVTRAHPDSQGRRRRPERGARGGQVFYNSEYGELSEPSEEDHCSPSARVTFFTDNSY

[6] = molecular target: Insulin-like growth factor 1 receptor (Homo sapiens, UniProt P08069); assay: Navigating the Kinome. Panel member name: IGF1R; assay type: functional
Chain of Insulin-like growth factor 1 receptor (P08069 31-736 limits assumed): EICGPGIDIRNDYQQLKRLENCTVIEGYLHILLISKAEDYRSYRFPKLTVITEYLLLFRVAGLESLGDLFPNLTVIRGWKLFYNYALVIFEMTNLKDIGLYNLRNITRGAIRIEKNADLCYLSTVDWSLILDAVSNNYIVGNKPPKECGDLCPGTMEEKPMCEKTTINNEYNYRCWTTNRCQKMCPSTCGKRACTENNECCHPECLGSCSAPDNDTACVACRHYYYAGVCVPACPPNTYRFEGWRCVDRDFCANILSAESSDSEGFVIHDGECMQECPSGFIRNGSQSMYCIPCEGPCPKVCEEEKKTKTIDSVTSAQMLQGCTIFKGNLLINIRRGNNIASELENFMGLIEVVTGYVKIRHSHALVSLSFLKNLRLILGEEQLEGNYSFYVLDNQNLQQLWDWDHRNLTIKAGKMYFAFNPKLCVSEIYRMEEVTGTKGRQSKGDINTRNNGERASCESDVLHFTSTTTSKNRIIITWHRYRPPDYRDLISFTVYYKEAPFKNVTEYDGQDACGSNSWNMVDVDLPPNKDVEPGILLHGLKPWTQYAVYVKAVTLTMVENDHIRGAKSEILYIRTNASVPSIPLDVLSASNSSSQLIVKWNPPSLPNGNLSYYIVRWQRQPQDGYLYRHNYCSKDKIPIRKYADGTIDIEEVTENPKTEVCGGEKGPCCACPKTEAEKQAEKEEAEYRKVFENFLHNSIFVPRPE
Chain of Insulin-like growth factor 1 receptor (P08069 741-1367 limits assumed): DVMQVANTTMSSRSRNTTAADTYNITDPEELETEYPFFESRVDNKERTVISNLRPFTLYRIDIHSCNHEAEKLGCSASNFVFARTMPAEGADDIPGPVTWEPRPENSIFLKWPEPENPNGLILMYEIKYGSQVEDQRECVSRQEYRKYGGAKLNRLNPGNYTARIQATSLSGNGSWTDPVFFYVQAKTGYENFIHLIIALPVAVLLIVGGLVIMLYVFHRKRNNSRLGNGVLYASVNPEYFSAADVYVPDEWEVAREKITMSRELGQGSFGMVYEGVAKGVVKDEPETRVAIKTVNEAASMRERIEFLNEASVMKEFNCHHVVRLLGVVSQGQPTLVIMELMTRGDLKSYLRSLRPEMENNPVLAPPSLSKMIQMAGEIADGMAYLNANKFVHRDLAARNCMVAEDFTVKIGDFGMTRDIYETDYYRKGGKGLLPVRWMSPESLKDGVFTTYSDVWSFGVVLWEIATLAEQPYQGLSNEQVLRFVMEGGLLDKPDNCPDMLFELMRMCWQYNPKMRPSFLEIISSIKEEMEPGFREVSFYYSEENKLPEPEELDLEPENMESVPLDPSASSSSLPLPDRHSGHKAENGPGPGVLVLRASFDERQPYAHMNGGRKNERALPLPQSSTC

[7] = molecular target: T2, Low molecular weight phosphotyrosine protein phosphatase (Homo sapiens, UniProt P24666); assay type: functional; settings: read-out: IC50_Mean
T2 sequence (P24666 whole entry): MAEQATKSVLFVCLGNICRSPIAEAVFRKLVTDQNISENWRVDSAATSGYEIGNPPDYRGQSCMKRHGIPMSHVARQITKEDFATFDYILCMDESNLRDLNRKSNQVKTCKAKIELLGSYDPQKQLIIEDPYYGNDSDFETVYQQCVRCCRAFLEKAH

[8] = molecular target: T2, Low molecular weight phosphotyrosine protein phosphatase; assay type: functional; settings: read-out: IC50_Mean; remark: listed apart in the source
HEK293 [9] = assay: cells; settings: Homo sapiens
Interleukin-8 [10] = molecular target: T3, Interleukin-8 (Homo sapiens, UniProt P10145); assay: Dose Response confirmation of uHTS small molecule hits for cystic fibrosis induced NFkb Inhibitors in a TNFa-induced IL8 counterscreen.; assay type: functional; settings: read-out: IC50_Mean
T3 sequence (P10145 whole entry): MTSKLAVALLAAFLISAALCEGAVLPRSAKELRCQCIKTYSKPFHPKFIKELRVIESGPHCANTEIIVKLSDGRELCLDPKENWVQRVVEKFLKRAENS

Interleukin-8 [11] = molecular target: T3, Interleukin-8; assay: Dose Response confirmation of uHTS small molecule hits for cystic fibrosis induced NFkb Inhibitors in a PAF-induced IL8 counterscreen.; assay type: functional; settings: read-out: IC50_Mean
HEK293 [12] = assay: cells; settings: Homo sapiens; remark: listed apart in the source
Kallikrein-7 = Kallikrein-7 (Homo sapiens, UniProt P49862); assay: Fluorescence Intensity-based biochemical primary high throughput dose response assay to identify activators of kallikrein-7 (K7) zymogen.
Chain of Kallikrein-7 (P49862 whole entry): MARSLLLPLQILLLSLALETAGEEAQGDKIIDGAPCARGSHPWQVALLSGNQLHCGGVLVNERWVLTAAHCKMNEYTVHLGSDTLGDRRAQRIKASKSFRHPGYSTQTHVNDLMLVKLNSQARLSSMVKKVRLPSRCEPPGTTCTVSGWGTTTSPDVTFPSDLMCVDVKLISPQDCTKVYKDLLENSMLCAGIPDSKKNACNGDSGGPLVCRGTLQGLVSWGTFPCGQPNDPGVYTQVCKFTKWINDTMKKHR

[13] = NIH/3T3 fibroblast cytotoxicity, dose response, cytotoxicity control for T. cruzi growth inhibitor project, cell-based, cherry-pick samples, set 2 (AID 651817); assay type: functional; settings: NIH3T3
[14] = intracellular Trypanosoma cruzi inhibitors in host cells – cell-based, plate reader, cherry-pick samples, set 3, dose response (AID 651818); assay type: functional;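 also: compounds incubated with infected cells for about four days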
[15] = Fluorescence-based cell-based high throughput dose response assay for inhibitors of the interaction of nucleotide-binding oligomerization domain containing 2 (NOD2) and the receptor-interacting serine-threonine kinase 2 (RIPK2).; assay type: functional; settings: Homo sapiens

Structure (SMILES): Cc1cc(C(F)(F)F)nc(SCCN2CCOCC2)c1C#N
IC50 [2]: 19.7 µM (active)
IC50 (Prothrombin): 25.7 µM (active)
IC50 [3]: > 100 µM (inactive)

Structure (SMILES): Cc1cc(C)c(C=C2C(=O)Nc3ccccc32)[nH]1
Ki [4]: > 7.94 µM (inactive)
Ki [5]: 0.316 µM (active)
Ki [6]: > 1 µM (inactive)

Structure (SMILES): O=C(NCCc1ccccc1)c1coc(=O)c(Br)c1
EC50 (HEK293 [9]): > 59.6 µM (inactive)
IC50 (Interleukin-8 [10]): 0.684 µM (active)
IC50 (Interleukin-8 [11]): 0.987 µM (active)
EC50 (HEK293 [12]): > 59.6 µM (inactive)
EC50 (Kallikrein-7): 16.5 µM (inactive)

Structure (SMILES): C[C@H]1CN([C@@H](C)CO)C(=O)c2cccc(NC(=O)c3nc4ccccc4s3)c2O[C@H]1CN(C)S(=O)(=O)c1ccccc1
AC50 [13]: 39 µM (inactive)
AC50 [14]: 2.55 µM (active)

Structure (SMILES): C=CC(=O)N1C/C(=C/c2ccccc2)C(=O)/C(=C\c2ccccc2)C1
IC50 [15]: 3.66 µM (active)

Next, values leading:

IC50 [1]: 155 µM (inactive)
Structure (SMILES): C/C(CCC(C)C)=N\Nc1ccc(S(N)(=O)=O)cc1[N+](=O)[O-]

IC50 [7]: 8.44 µM (active)
IC50 [8]: 11.2 µM (active)
Structure (SMILES): O=C(CCCOc1ccc(Cl)cc1Cl)NNC(=O)c1ccc(NC(=O)c2ccccc2)cc1

IC50 [2]: 24.8 µM (active)
IC50 (Prothrombin): 27.6 µM (active)
IC50 [3]: 45 µM (active)
Structure (SMILES): CSc1nsc(/C=C/Nc2ccc(C(=O)O)cc2)c1C#N
